Assay results taken from patent US20230210853A1 (Halia Therapeutics, Inc., priority 2020, published 2023).

Target: T1, full-length recombinant human NEK7 (Homo sapiens, UniProt Q8TDX7)
T1 construct: full-length recombinant human NEK7; GST (N); purchased SignalChem N09-10G; host or cells: Sf9 insect cells (baculovirus)
Test: NEK7 enzymatic assay ([33P]-ATP, casein substrate)
Format: biochemical
Settings: recombinant human NEK7, casein substrate
Method: In some embodiments, the IC50 of the compounds of Structure (I), (Ia), (Ib), (Ic), (Id), (Ie), or (If) to inhibit NEK7 was determined by the concentration of the compound required to inhibit 50% of the activity of the NEK kinase.
(§1) Casein substrate (from bovine milk, hydrolyzed and partially dephosphorylated mixture of α, β and κ caseins, obtained from Sigma Aldrich, catalogue #C4765, diluted in distilled water to a final concentration of 1 mg/mL) and full-length recombinant human NEK7 (expressed by baculovirus in Sf9 insect cells using a N-terminal GST tag, obtained from SignalChem, catalogue #N09-10G, 0.1 μg/μL) were mixed in assay buffer (20 mM Hepes pH 7.5, 10 mM MgCl2, 1 mM EGTA, 0.02% Brij35, 0.02 mg/ml BSA, 0.1 mM Na3 VO4, 2 mM DTT, 1% DMSO). Compounds of interest (serial 3-fold dilution in DMSO from 10 μM to 0.5 nM) or vehicle (1% DMSO) were dispensed into the kinase reaction mixture by Acoustic technology (Echo550, nanoliter range). After incubation at room temperature for 20 minutes, the kinase reaction was initiated by addition of [^33P]-ATP (specific activity 10 μCi/μl) and the mixture was incubated at room temperature for 2 hours. The reaction was then stopped by spotting the reaction mixture on strips of phosphocellulose P81 paper. Following washing, the radioactivity of the P81 paper was measured and kinase activity data were expressed as the percent remaining kinase activity in test samples compared to vehicle reactions. IC50 values and curve fits were obtained using Prism (GraphPad Software).
as §1, with “μg/L)” for “μg/μL)”, “Na3VO4,” for “Na3 VO4,”, “(Echo550;” for “(Echo550,”

T1 sequence (Q8TDX7 whole entry): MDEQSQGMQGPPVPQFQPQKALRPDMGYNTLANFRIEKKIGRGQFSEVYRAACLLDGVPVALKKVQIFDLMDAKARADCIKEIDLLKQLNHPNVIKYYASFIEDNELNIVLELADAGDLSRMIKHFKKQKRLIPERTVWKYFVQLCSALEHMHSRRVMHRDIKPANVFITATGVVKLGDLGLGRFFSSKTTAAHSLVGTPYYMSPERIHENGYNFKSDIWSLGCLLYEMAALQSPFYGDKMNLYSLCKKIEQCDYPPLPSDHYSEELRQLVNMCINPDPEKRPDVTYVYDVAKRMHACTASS

Row | SMILES | IC50 (Table 2b) | IC50 (Table 2d)
1 | CC(C)(C)c1cc(NC(=O)Nc2ccc(Oc3ncnc4[nH]cc(Cl)c34)cc2F)n(-c2ccccc2)n1 [Ib-13, 1-(3-(tert-butyl)-1-phenyl-1H-pyrazol-5-yl)-3-(4-((5-chloro-7H-pyrrolo[2,3-b]pyrimidin-4-yl)oxy)-2-fluorophenyl)urea] | > 1500 nM | –
2 | CC(C)(C)c1cc(NC(=O)NC2CCC(Oc3ccnc4[nH]ccc34)CC2)n(-c2ccccc2)n1 (centres unmarked) [Ib-16, 1-(4-((1H-pyrrolo[2,3-b]pyridin-4-yl)oxy)cyclohexyl)-3-(3-(tert-butyl)-1-phenyl-1H-pyrazol-5-yl)urea] | > 1500 nM | –
3 | O=C(Nc1ccc(Oc2ccnc3[nH]cc(Cl)c23)cc1F)Nc1cc(C2(C(F)(F)F)CC2)nn1-c1ccccc1 [Ib-17, 1-(4-((3-chloro-1H-pyrrolo[2,3-b]pyridin-4-yl)oxy)-2-fluorophenyl)-3-(1-phenyl-3-(1-(trifluoromethyl)cyclopropyl)-1H-pyrazol-5-yl)urea] | > 1500 nM | –
4 | CN1CCC(n2nc(C(C)(C)C)cc2NC(=O)Nc2ccc(Oc3ccnc4[nH]cc(Cl)c34)cc2F)CC1 [Ib-21, 1-(3-(tert-butyl)-1-(1-methylpiperidin-4-yl)-1H-pyrazol-5-yl)-3-(4-((3-chloro-1H-pyrrolo[2,3-?]pyridin-4-yl)oxy)-2-fluorophenyl)urea] | > 1500 nM | –
5 | CC(C)(C)c1cc(NC(=O)Cc2ccc(Oc3ccnc4[nH]cc(Cl)c34)cc2F)n(-c2ccccc2)n1 [Ib-22, N-(3-(tert-butyl)-1-phenyl-1H-pyrazol-5-yl)-2-(4-((3-chloro-1H-pyrrolo[2,3-b]pyridin-4-yl)oxy)-2-fluorophenyl)acetamide] | > 1500 nM | –
6 | Cc1cn(-c2ccc(NC(=O)Nc3ccc(-c4cn(C5CC5)c5ncnc(N)c45)cc3F)cc2C(F)(F)F)cn1 [Id-23] | – | > 1500 nM
7 | Nc1ncnc2c1c(-c1ccc(NC(=O)Nc3ccc(CN4CCOCC4)cc3F)c(F)c1)nn2C1CC1 [Id-26, 1-(4-(4-amino-1-cyclopropyl-1H-pyrazolo[3,4-d]pyrimidin-3-yl)-2-fluorophenyl)-3-(2-fluoro-4-(morpholinomethyl)phenyl)urea] | – | > 1500 nM
8 | Cc1cc(NC(=O)Nc2ccc(-c3cn(C4CC4)c4ncnc(N)c34)cc2F)ccc1N1CCOCC1 [Id-32, 1-(4-(4-amino-7-cyclopropyl-7H-pyrrolo[2,3-d]pyrimidin-5-yl)-2-fluorophenyl)-3-(3-methyl-4-morpholinophenyl)urea] | – | > 1500 nM
9 | CN1CCN(Cc2ccc(NC(=O)Nc3ccc(-c4cn(C5CC5)c5ncnc(N)c45)cc3F)cc2Cl)CC1 [Id-36, 1-(4-(4-amino-7-cyclopropyl-7H-pyrrolo[2,3-d]pyrimidin-5-yl)-2-fluorophenyl)-3-(3-chloro-4-((4-methylpiperazin-1-yl)methyl)phenyl)urea] | – | < 150 nM
10 | COc1cc(NC(=O)Nc2ccc(-c3cn(C4CC4)c4ncnc(N)c34)cc2F)ccc1CN1CCN(C)CC1 [Id-37, 1-(4-(4-amino-7-cyclopropyl-7H-pyrrolo[2,3-d]pyrimidin-5-yl)-2-fluorophenyl)-3-(3-methoxy-4-((4-methylpiperazin-1-yl)methyl)phenyl)urea] | – | > 1500 nM
11 | CCN1CCN(Cc2ccc(NC(=O)Nc3ccc(-c4cn(C5CC5)c5ncnc(N)c45)cc3F)cc2C(F)(F)F)CC1 [Id-40, 1-(4-(4-amino-7-cyclopropyl-7H-pyrrolo[2,3-d]pyrimidin-5-yl)-2-fluorophenyl)-3-(4-((4-ethylpiperazin-1-yl)methyl)-3-(trifluoromethyl)phenyl)urea] | – | < 150 nM

Continued, values first:

Row | IC50 (Table 2b) | IC50 (Table 2d) | SMILES
12 | 501 to 1500 nM | – | O=C(Nc1ccc(Oc2ccnc3[nH]cc(Cl)c23)cc1F)Nc1cc(C2CC2)nn1-c1ccccc1 [Ib-11, 1-(4-((3-chloro-1H-pyrrolo[2,3-b]pyridin-4-yl)oxy)-2-fluorophenyl)-3-(3-cyclopropyl-1-phenyl-1H-pyrazol-5-yl)urea]
13 | > 1500 nM | – | CC(C)(C)c1cc(NC(=O)Nc2cc(F)c(Oc3ccnc4[nH]cc(Cl)c34)cc2F)n(-c2ccccc2)n1 [Ib-15]
14 | > 1500 nM | – | Cc1nc2c(Oc3ccc(NC(=O)Nc4cc(C(C)(C)C)nn4-c4ccccc4)c(F)c3)ccnc2[nH]1 [Ib-19, 1-(3-(tert-butyl)-1-phenyl-1H-pyrazol-5-yl)-3-(2-fluoro-4-((2-methyl-3H-imidazo[4,5-b]pyridin-7-yl)oxy)phenyl)urea]
15 | > 1500 nM | – | CC(C)(C)c1cc(NC(=O)NC2CCC(Oc3ccnc4[nH]cc(Cl)c34)CC2)n(-c2ccccc2)n1 (centres unmarked) [Ib-20, 1-(3-(tert-butyl)-1-phenyl-1H-pyrazol-5-yl)-3-(4-((3-chloro-1H-pyrrolo[2,3-b]pyridin-4-yl)oxy)cyclohexyl)urea]
16 | – | > 1500 nM | Cc1cc(NC(=O)Nc2ccc(-c3nn(C(C)C)c4ncnc(N)c34)cc2)ccc1N1CCOCC1 [Id-1, 1-(4-(4-amino-1-isopropyl-1H-pyrazolo[3,4-J]pyrimidin-3-yl)phenyl)-3-(3-methyl-4-morpholinophenyl)urea]
17 | – | > 1500 nM | CCN1CCN(Cc2ccc(NC(=O)Nc3ccc(-c4nn(C5CC5)c5ncnc(N)c45)cc3F)cc2C(F)(F)F)CC1 [Id-7, 1-(4-(4-amino-t-cyclopropyl-1H-pyrazolo[3,4-d]pyrimidin-3-yl)-2-fluorophenyl)-3-(4-((4-ethylpiperazin-1-yl)methyl)-3-(trifluoromethyl)phenyl)urea]
18 | – | 151 to 300 nM | CN1CCN(Cc2ccc(NC(=O)Nc3ccc(-c4nn(C5CC5)c5ncnc(N)c45)cn3)cc2C(F)(F)F)CC1 [Id-29, 1-(5-(4-amino-1-cyclopropyl-1H-pyrazolo[3,4-d]pyrimidin-3-yl)pyridin-2-yl)-3-(4-((4-methylpiperazin-1-yl)methyl)-3-(trifluoromethyl)phenyl)urea]
19 | – | 151 to 300 nM | CN1CCN(Cc2ccc(NC(=O)Nc3ccc(-c4cn(C5CC5)c5ncnc(N)c45)cc3Cl)cc2C(F)(F)F)CC1 [Id-34, 1-(4-(4-amino-7-cyclopropyl-7H-pyrrolo[2,3-d]pyrimidin-5-yl)-2-chlorophenyl)-3-(4-((4-methylpiperazin-1-yl)methyl)-3-(trifluoromethyl)phenyl)urea]
20 | – | 301 to 500 nM | CN1CCN(Cc2ccc(NC(=O)Nc3ccc(-c4cn(C5CC5)c5ncnc(N)c45)cc3F)cc2F)CC1 [Id-35, 1-(4-(4-amino-7-cyclopropyl-7H-pyrrolo[2,3-d]pyrimidin-5-yl)-2-fluorophenyl)-3-(3-fluoro-4-((4-methylpiperazin-1-yl)methyl)phenyl)urea]
21 | – | < 150 nM | Nc1ncnc2c1c(-c1ccc(NC(=O)Nc3ccc(CN4CCN(CCO)CC4)c(C(F)(F)F)c3)c(F)c1)cn2C1CC1 [Id-41, 1-(4-(4-amino-7-cyclopropyl-7H-pyrrolo[2,3-d]pyrimidin-5-yl)-2-fluorophenyl)-3-(4-((4-(2-hydroxyethyl)piperazin-1-yl)methyl)-3-(trifluoromethyl)phenyl)urea]
22 | – | < 150 nM | COCCN1CCN(Cc2ccc(NC(=O)Nc3ccc(-c4cn(C5CC5)c5ncnc(N)c45)cc3F)cc2C(F)(F)F)CC1 [Id-42, 1-(4-(4-amino-7-cyclopropyl-7H-pyrrolo[2,3-d]pyrimidin-5-yl)-2-fluorophenyl)-3-(4-((4-(2-methoxyethyl)piperazin-1-yl)methyl)-3-(trifluoromethyl)phenyl)urea]
23 | – | < 150 nM | CN1CCCN(Cc2ccc(NC(=O)Nc3ccc(-c4cn(C5CC5)c5ncnc(N)c45)cc3F)cc2C(F)(F)F)CC1 [Id-43, 1-(4-(4-amino-7-cyclopropyl-7H-pyrrolo[2,3-d]pyrimidin-5-yl)-2-fluorophenyl)-3-(4-((4-methyl-1,4-diazepan-1-yl)methyl)-3-(trifluoromethyl)phenyl)urea]
